Data from patent publication US20120309676A1, “Lantibiotic Salts” (priority 2010, published 2012).
Structures can show the parent of a compound that is named as a salt. Where two headings read alike, the source gives them in different places.

Columns and labels:
[1] = system: Vancomycin-intermediate Staphylococcus aureus; test: MIC susceptibility testing, vancomycin-intermediate Staphylococcus aureus; type: cell-based
Method: (§1) Susceptibility testing with the exception of Streptococcus pneumoniae was performed by two-fold serial dilutions in Mueller Hinton Broth supplemented with 50 μg/mL Ca^2+. Susceptibility testing of S. pneumoniae was performed by two-fold serial dilutions in Brain-Heart-Infusion Broth supplemented with 50 μg/mL Ca^2+.
(§2) Modal values from up to 6 determinations

[2] = system: MRSA; test: MIC susceptibility testing, MRSA; type: cell-based, Staphylococcus aureus
Method: as §1, §2

[3] = system: MSSA; test: MIC susceptibility testing, MSSA; type: cell-based, Staphylococcus aureus
Method: as §1, §2

[4] = system: Methicillin-sensitive Staph. epidermidis; test: MIC susceptibility testing, methicillin-sensitive Staph. epidermidis; type: cell-based, S. epidermidis
Method: as §1, §2

[5] = system: Methicillin-resistant Staph. epidermidis; test: MIC susceptibility testing, methicillin-resistant Staph. epidermidis; type: cell-based, S. epidermidis
Method: as §1, §2

[6] = system: Vancomycin sensitive enterococci, E. faecium; test: MIC susceptibility testing, vancomycin sensitive enterococci (E. faecium); type: cell-based
Method: as §1, §2

[7] = system: Vancomycin resistant enterococci, E. faecium; test: MIC susceptibility testing, vancomycin resistant enterococci (E. faecium); type: cell-based
Method: as §1, §2

[8] = Aqueous solubility; type: physicochemical
Source text: Solubility as employed herein is used generically to refer to a distribution of a compound of formula (I) in a solvent (for example water, saline or an aqueous isotonic solution such as glucose) such that the formulation/composition resulting therefrom is substantially free of visible aggregates and for example is substantially transparent when viewed by the naked eye. Such a formulation would therefore include a whole range of formats which are suitable for infusion and/or injection such as solutions, suspensions, colloids and the like. […]

[9] = system: Methicillin Resistant Staphylococcus aureus (MRSA, ATCC 33591); test: Neutropaenic mouse thigh infection model; type: in vivo
Method: In vivo efficacy of compounds of the present invention in the treatment of bacterial tissue infections was evaluated using a neutropaenic mouse thigh model.
Groups of 6 male ICR mice weighing 24±2 g were used. Test animals were immunosuppressed by 2 intraperitoneal injections of cyclophosphamide, the first at 150 mg/Kg 4 days before infection (day-4) and the second at 100 mg/Kg 1 day before infection (day-1). On day 0, individual animals were inoculated intramuscularly (IM) into the right thigh of test animals with 1.15×10^8 CFU/mouse of Methicillin Resistant Staphylococcus aureus (MRSA, ATCC 33591) suspended in 100 μL of sterile PBS, pH 7.4. Vehicle and test substances were administered intravenously (IV) at a dose volume of 6 mL/Kg, 2 and 14 hours after thigh infection. Example 1 and vancomycin were dissolved in 15% hydroxypropyl-β-cyclodextrin/4.4% glucose/1.5 mM potassium phosphate buffer, pH 7.0 and administered at doses of 5, 10, 20, 30 and 40 mg/Kg. At 26 hours after inoculation, muscle of the right thigh of each test mouse was harvested. From an additional group with no treatment, muscle of the right thigh was harvested at 2 hours after inoculation for the basal CFU determination. The removed muscle tissues were then homogenized in 3-4 mL of PBS, pH 7.4 with a ceramic mortar. Homogenates of 0.1 mL were used for serial 10-fold dilutions and plated on Mueller Hinton broth in 1.5% Bacto agar for CFU determination. […] Results (mean cfu/g) are graphically represented in FIG. 2.

Compound: CC[C@H](C)[C@@H]1NC(=O)[C@@H]2NC(=O)[C@H](CC(C)C)NC(=O)[C@H](NC(=O)[C@@H]3CSC[C@@H](N)C(=O)N[C@@H](CO)C(=O)NCC(=O)N[C@@H](Cc4c[nH]c5ccccc45)C(=O)N[C@@H](C(C)C)C(=O)N3)[C@H](C)SC[C@H](NC(=O)[C@H](CCC(=O)O)NC1=O)C(=O)NCC(=O)N[C@H]1C(=O)N[C@@H](CC(C)C)C(=O)N[C@@H](C(C)C)C(=O)N[C@@H](CS[C@H]2C)C(=O)N[C@@H](C)C(=O)N[C@H](C(=O)NCc2cc(Cl)cc(Cl)c2)CS[C@H]1C [Example 1, Deoxyactagardine B (3,5-dichlorobenzylamine) monocarboxamide N-methyl glucamine salt]
- MIC ([1]; S. aureus 2): 4 µg/mL
- MIC ([1]; S. aureus 26): 4 µg/mL
- MIC ([1]; S. aureus MI): 16 µg/mL
- MIC ([1]; S. aureus Mu3): 8 µg/mL
- MIC ([1]; S. aureus Mu50): 4 µg/mL
- MIC ([1]; S. aureus NJ): 8 µg/mL
- MIC ([1]; S. aureus V99): 4 µg/mL
- MIC ([2]; S. aureus 12232): 4 µg/mL
- MIC ([2]; S. aureus R31): 4 µg/mL
- MIC ([2]; S. aureus R33): 4 µg/mL
- MIC ([2]; S. aureus R34): 4 µg/mL
- MIC ([2]; S. aureus R36): 4 µg/mL
- MIC ([2]; S. aureus R37): 4 µg/mL
- MIC ([2]; S. aureus R39): 4 to 8 µg/mL
- MIC ([2]; S. aureus R40): 4 to 8 µg/mL
- MIC ([2]; S. aureus W71): 8 µg/mL
- MIC ([2]; S. aureus W74): 4 µg/mL
- MIC ([2]; S. aureus W82): 4 to 8 µg/mL
- MIC ([2]; S. aureus W96): 4 to 8 µg/mL
- MIC ([2]; S. aureus W97): 4 µg/mL
- MIC ([2]; S. aureus W98): 4 to 8 µg/mL
- MIC ([2]; S. aureus W99): 4 to 8 µg/mL
- MIC ([3]; S. aureus 8325-4): 4 µg/mL
- MIC ([3]; S. aureus G12): 4 µg/mL
- MIC ([3]; S. aureus G15): 4 µg/mL
- MIC ([3]; S. aureus G20): 4 µg/mL
- MIC ([3]; S. aureus G22): 4 µg/mL
- MIC ([3]; S. aureus G23): 4 µg/mL
- MIC ([3]; S. aureus G26): 4 µg/mL
- MIC ([3]; S. aureus G28): 4 µg/mL
- MIC ([3]; S. aureus G29): 4 µg/mL
- MIC ([3]; S. aureus G30): 4 µg/mL
- MIC ([3]; S. aureus G31): 4 µg/mL
- MIC ([3]; S. aureus G32): 4 µg/mL
- MIC ([3]; S. aureus G33): 4 µg/mL
- MIC ([3]; S. aureus G35): 4 µg/mL
- MIC ([3]; S. aureus SH1000): 4 to 8 µg/mL
- MIC ([4]; S. epidermidis 9AF): 16 µg/mL
- MIC ([4]; S. epidermidis C12): 16 µg/mL
- MIC ([4]; S. epidermidis C16): 16 µg/mL
- MIC ([4]; S. epidermidis GRL05001): 8 µg/mL
- MIC ([4]; S. epidermidis GRL05002): 8 µg/mL
- MIC ([4]; S. epidermidis GRL05003): 8 µg/mL
- MIC ([4]; S. epidermidis GRL05004): 4 to 8 µg/mL
- MIC ([4]; S. epidermidis GRL05005): 4 to 8 µg/mL
- MIC ([4]; S. epidermidis GRL05006): 4 to 8 µg/mL
- MIC ([4]; S. epidermidis GRL05007): <16 µg/mL
- MIC ([4]; S. epidermidis GRL05008): 4 to 8 µg/mL
- MIC ([4]; S. epidermidis GRL05009): 16 µg/mL
- MIC ([4]; S. epidermidis GRL05010): <16 µg/mL
- MIC ([4]; S. epidermidis MF87): 4 µg/mL
- MIC ([5]; S. epidermidis 7753921): 8 to 16 µg/mL
- MIC ([5]; S. epidermidis 7755298): 8 µg/mL
- MIC ([5]; S. epidermidis 7765349): 4 µg/mL
- MIC ([5]; S. epidermidis 7864847): <16 µg/mL
- MIC ([5]; S. epidermidis 7865688): 16 µg/mL
- MIC ([5]; S. epidermidis GRL05011): 16 µg/mL
- MIC ([5]; S. epidermidis GRL05012): 8 µg/mL
- MIC ([5]; S. epidermidis GRL05013): 8 to 16 µg/mL
- MIC ([5]; S. epidermidis GRL05014): 8 to 16 µg/mL
- MIC ([5]; S. epidermidis GRL05015): 8 to 16 µg/mL
- MIC ([5]; S. epidermidis GRL05016): 4 to 8 µg/mL
- MIC ([5]; S. epidermidis GRL05017): 16 µg/mL
- MIC ([5]; S. epidermidis GRL05019): 16 µg/mL
- MIC ([5]; S. epidermidis GRL05020): 4 µg/mL
- MIC ([6]; E. faecium 19579): 4 µg/mL
- MIC ([6]; E. faecium 7754422): <8 µg/mL
- MIC ([6]; E. faecium 7865229): 16 µg/mL
- MIC ([7]; E. faecium 7634337): 16 µg/mL
- MIC ([7]; E. faecium 7662769): <16 µg/mL
- MIC ([7]; E. faecium 7860190): 4 to 8 µg/mL
- MIC ([7]; E. faecium 7865532): 16 µg/mL
- MIC ([7]; E. faecium 9704998): 8 µg/mL
- MIC ([7]; E. faecium 9709024): <16 µg/mL
- MIC ([7]; E. faecium 9710577): 16 µg/mL
- pH of saturated solution ([8]; aqueous saturated solution, listed as N-methyl-D-glucamine salt): 8.43
- Solubility ([8]; aqueous, * = calculations made from two determinations, listed as N-methyl-D-glucamine salt): 6.87* mg/mL
- Solubility ([8]; water, salts of compound 1, read-out: solubility): > 10000 µg/mL
- antimicrobial effect ([9]; IV at 5, 10, 20, 30 and 40 mg/Kg×2, 2 and 14 h after thigh infection, harvest at 26 h): significant antimicrobial effect
- reduction in CFU/g ([9]; at 10 mg/kg and above, IV ×2, thigh muscle at 26 h): > 1000 fold
